A value given as a limit tells only on which side of the number the result lay.

The nature of data set [1]: in vitro. The conditions noted are these: human.
Protocol: The MTT colorimetric assay was performed as a preliminary evaluation of the cytotoxicity of the selected flavonoids according to the method described and validated by Strawa et al. [21]. Briefly, melanoma cells and fibroblasts were seeded in 96-well microplates at a density of 1 × 10^4 cells per well. Fibroblasts were used as a control cell line in order to assess the selectivity of the compounds. […] Subsequently, the cells were washed with PBS, incubated with MTT solution for 2 h, and lysed with dimethyl sulfoxide (DMSO) supplemented with 1% (v/v) Sorensen’s glycine buffer. The absorbance was measured using a microplate reader (EPOCH 2, BioTek, Winooski, VT, USA) at a wavelength of 570 nm. The compounds were used at a final DMSO concentration of no more than 0.1% (v/v) in each well. The results were generated from at least three independent experiments. […] The IC50 values were calculated with GraphPad Prism 9 software (GraphPad Software, San Diego, CA, USA).
In data set [2] the test system is C32 melanoma cells. Kind of data set: MTT cell viability assay, C32.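 Also: MTT added for 2 h, cells lysed in DMSO, absorbance read at 570 nm, compound vehicle kept at or below 0.1% DMSO.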 The conditions noted are these: Homo sapiens, read-out: IC50, cytotoxic activity, MTT test.
In data set [3] the test system is A375 melanoma cells. In words: MTT cell viability assay, A375.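 Also: Read-out is formazan absorbance at 570 nm after 2 h with MTT, with compounds in at most 0.1% v/v DMSO.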 The conditions noted are these: Homo sapiens. In general terms: Tetrazolium dyes change colour on reduction, which living cells bring about.
Data set [4] has as its system C32 melanoma cells. In words: Neutral red uptake (NRU) assay, C32.
The subject of data set [5] is A375 melanoma cells. Kind of data set: Neutral red uptake (NRU) assay, A375. The conditions noted are these: read-out: IC50, cytotoxic activity, NRU assay.
The nature of data set [6]: Neutral red uptake (NRU) assay, normal cells. The conditions noted are these: human, human skin fibroblasts (CCD25Sk).
The subject of data set [7] is A375 melanoma cells. In words: [3H]-thymidine incorporation (DNA biosynthesis), A375. Format: cell-based, human. The settings on record: read-out: IC50, effect on DNA biosynthesis ([3H]-thymidine incorporation). Background: Uptake of a labelled nucleoside into DNA is a usual measure of proliferation.
Protocol: (§1) The inhibition of DNA biosynthesis was evaluated using [^3H]-thymidine incorporation into the DNA of melanoma cells (C32, A375) and fibroblasts treated with the studied compounds [21]. The cells were briefly seeded in 24-well plates (1 × 10^5 cells per well) and allowed to adhere for 24 h. […] After incubation for 24, 48, and 72 h, the cells were rinsed three times with PBS. Then, cells were lysed in 1 mL of 0.1 M NaOH containing 1% SDS. The cell lysate was moved into scintillation vials containing scintillation liquid, and the radioactivity of the samples was measured using a liquid scintillation analyzer (Perkin-Elmer, Waltham, MA, USA).
For data set [8], the system named is C32 melanoma cells. In words: [3H]-thymidine incorporation (DNA biosynthesis), C32. In kind it is cell-based, human. The conditions noted are these: read-out: IC50, effect on DNA biosynthesis ([3H]-thymidine incorporation).
Protocol: as §1
Data set [9] deals with human skin fibroblasts (CCD25Sk). In words: [3H]-thymidine incorporation (DNA biosynthesis), normal cells. The conditions noted are these: read-out: IC50, effect on DNA biosynthesis ([3H]-thymidine incorporation). Format: cell-based.
Protocol: as §1
Data set [10] deals with caspases, PARP, phospho-RSK in A375 cells. Kind of data set: Western immunoblot of apoptosis mediators and RSK, A375. In kind it is cell-based, human. The settings on record: A375, 48 h, Western blot.
Protocol: Floating cells were harvested by centrifugation of the conditioned media (300× g, 5 min). Cell pellet and adherent cells were lysed in a cell lysis buffer supplemented with inhibitors of proteases and phosphatases. The cell lysate was sonicated (2 × 10 s) on ice with an ultrasonic homogenizer (UP200S, Hielscher Ultrasonics GmbH, Teltow, Germany) and centrifuged for 10 min at 10,000× g. The supernatant was collected and stored in a freezer at −70 °C. Protein concentrations in the cell supernatants were determined using a Lowry assay. Obtained proteins were dissolved on SDS-PAGE gels (7.5%, 10%, or 12%) using the Mini-Protean Tetra system. The proteins were transferred to nitrocellulose membranes using the Mini Trans-Blot Cell wet blotting system. The 5% skim milk was used to block membranes. Then, membranes were probed for 24 h at 4 °C with the following antibodies: anti-phospho-RSK, anti-RSK, anti-PARP, anti-cleaved PARP, anti-caspase-8, anti-caspase-9, anti-caspase-7, anti-caspase-3, and anti-actin. Membranes were incubated with an ECL-HRP (enhanced chemiluminescence-horseradish peroxidase) substrate, and the signal was spotted using the BioSpectrum Imaging System and VisionWorks LS software 7.0 (Ultra-Violet Products, Ltd., San Gabriel, CA, USA). The intensity of the bands was quantified by densitometric analysis using UVIBand software, version 15.08d (Uvitec Ltd., Cambridge, UK).
The subject of data set [11] is caspases, PARP, phospho-RSK in C32 cells. In words: Western immunoblot of apoptosis mediators and RSK, C32. As to cleaved PARP and caspase-9: test concentration or dose not given here. In kind it is cell-based, human. The conditions noted are these: C32, 48 h, Western blot. On the technique in general: A western blot detects proteins with antibodies after separation by electrophoresis.
Data set [12] has as its system human skin fibroblasts (CCD25Sk). Kind of data set: Neutral red uptake (NRU) assay, normal cells. The settings on record: read-out: IC50, cytotoxic activity, NRU assay; Normal cells (fibroblasts), 48 h.
[13] abbreviates: A-375, 24 h, read-out: IC50, cytotoxic activity, MTT test, A375, 24 h.
[14] abbreviates: A-375, 48 h, read-out: IC50, cytotoxic activity, MTT test, A375, 48 h.
The mark [15] stands for this setting: A-375, 72 h, read-out: IC50, cytotoxic activity, MTT test, A375, 72 h.
The mark [16] stands for this setting: Homo sapiens, C32, 24 h, read-out: IC50, cytotoxic activity, NRU assay, C32, 24 h.
The mark [17] stands for this setting: Homo sapiens, C32, 48 h, read-out: IC50, cytotoxic activity, NRU assay, C32, 48 h.
[18] abbreviates: Homo sapiens, C32, 72 h, read-out: IC50, cytotoxic activity, NRU assay, C32, 72 h.

For the molecule `O=c1c(O)c(-c2cc(O)c(O)c(O)c2)oc2cc(O)cc(O)c12` [Compound 30, myricetin], the IC50 at 24 h in data set [1] and in data set [6] was over 200 µM throughout. Besides, the IC50 at 48 h in data set [1] and in data set [6] was over 200 µM throughout. In addition, the IC50 at 72 h in data set [1] and in [6] was over 200 µM in each case. In addition, the IC50 in [2] (C32, 24 h) is over 200 µM; in data set [2] (C32, 48 h), over 200 µM; in data set [2] (C32, 72 h), over 200 µM; in [3] (setting [13]) it was over 200 µM; in [3] (setting [14]) it was over 200 µM; in [3] (setting [15]), 75.3 ± 4.8 µM. Also, the IC50 in [4] (setting [16]) is over 200 µM; in [4] (setting [17]), over 200 µM; in data set [4] (setting [18]) it was over 200 µM; in [5] (Homo sapiens, A-375, 24 h), over 200 µM; in [5] (Homo sapiens, A-375, 48 h) it was over 200 µM; in data set [5] (Homo sapiens, A-375, 72 h) it was over 200 µM.
Take `O=C(O)C1OC(Oc2cc(O)c3c(=O)cc(-c4ccc(O)c(O)c4)oc3c2)C(O)C(O)C1O` (centres unmarked) [Compound 8, luteolin 7-O-glucuronide]: the IC50 at 24 h in [1] and in [6] was over 200 µM in each case. The IC50 at 48 h in data set [1] and in data set [6] was over 200 µM throughout. The IC50 at 72 h in data set [1] and in data set [6] was over 200 µM throughout. Moreover, the IC50 was over 200 µM in data set [2] (C32, 24 h); over 200 µM in data set [2] (C32, 48 h); over 200 µM in data set [2] (C32, 72 h); over 200 µM in [3] (setting [13]); over 200 µM in [3] (setting [14]); over 200 µM in data set [3] (setting [15]). The IC50 in [4] (setting [16]) was over 200 µM; in data set [4] (setting [17]), over 200 µM; in data set [4] (setting [18]), over 200 µM; in [5] (Homo sapiens, A-375, 24 h), over 200 µM; in data set [5] (Homo sapiens, A-375, 48 h), over 200 µM; in data set [5] (Homo sapiens, A-375, 72 h), over 200 µM.
Consider `O=C(O)C1OC(Oc2c(-c3ccc(O)cc3)oc3cc(O)cc(O)c3c2=O)C(O)C(O)C1O` (centres unmarked) [Compound 21, kaempferol 3-O-glucuronide], for which the IC50 at 24 h in data set [1] and in [6] was over 200 µM each time. Besides, the IC50 at 48 h in data set [1] and in data set [6] was over 200 µM throughout. The IC50 at 72 h in data set [1] and in data set [6] was over 200 µM throughout. The IC50 in data set [2] (C32, 24 h) is over 200 µM; in [2] (C32, 48 h), over 200 µM; in data set [2] (C32, 72 h), over 200 µM; in data set [3] (setting [13]), over 200 µM; in data set [3] (setting [14]), over 200 µM; in [3] (setting [15]) it was over 200 µM. The IC50 is over 200 µM in [4] (setting [16]); over 200 µM in data set [4] (setting [17]); over 200 µM in data set [4] (setting [18]); over 200 µM in data set [5] (Homo sapiens, A-375, 24 h); over 200 µM in data set [5] (Homo sapiens, A-375, 48 h); over 200 µM in data set [5] (Homo sapiens, A-375, 72 h).
In the case of `COc1ccc(-c2oc3c(CC=C(C)C)c(O[C@@H]4O[C@H](CO)[C@@H](O)[C@H](O)[C@H]4O)cc(O)c3c(=O)c2O[C@@H]2O[C@@H](C)[C@H](O)[C@@H](O)[C@H]2O)cc1` [Compound 23, icariin], the IC50 at 24 h in data set [1] and in data set [6] was over 200 µM throughout. Further, the IC50 at 48 h in [1] and in data set [6] was over 200 µM in each case. The IC50 at 72 h in data set [1] and in [6] was over 200 µM throughout. In addition, the IC50 in [2] (C32, 24 h) is over 200 µM; in data set [2] (C32, 48 h) it was over 200 µM; in data set [2] (C32, 72 h), over 200 µM; in data set [3] (setting [13]), over 200 µM; in data set [3] (setting [14]) it was over 200 µM; in [3] (setting [15]), over 200 µM. Moreover, the IC50 in data set [4] (setting [16]) was over 200 µM; in [4] (setting [17]), over 200 µM; in [4] (setting [18]) it was over 200 µM; in data set [5] (Homo sapiens, A-375, 24 h), over 200 µM; in data set [5] (Homo sapiens, A-375, 48 h), over 200 µM; in data set [5] (Homo sapiens, A-375, 72 h) it was over 200 µM.
With `O=c1cc(-c2ccc(O)c(O)c2)oc2cc(OC3OC(CO)C(O)C(O)C3O)cc(O)c12` (centres unmarked) [Compound 7, luteolin 7-O-glucoside], the IC50 at 24 h in [1] and in data set [6] was over 200 µM in each case. Moreover, the IC50 at 48 h in data set [1] is over 200 µM; in data set [6], 100 to 200 µM. The figures for the IC50 at 72 h in [1] and in data set [6] were over 200 µM and 100 to 200 µM, respectively. The IC50 in data set [2] (C32, 24 h) was over 200 µM; in data set [2] (C32, 48 h) it was 60.5 ± 4.6 µM; in [2] (C32, 72 h) it was 40.7 ± 2.9 µM; in data set [3] (setting [13]), over 200 µM; in data set [3] (setting [14]) it was over 200 µM; in data set [3] (setting [15]), 37.1 ± 3 µM. Moreover, the IC50 is over 200 µM in data set [4] (setting [16]); 29.6 ± 2 µM in data set [4] (setting [17]); 23 ± 2.1 µM in [4] (setting [18]); over 200 µM in [5] (Homo sapiens, A-375, 24 h); 56.7 ± 3.8 µM in [5] (Homo sapiens, A-375, 48 h); 41.5 ± 3.3 µM in data set [5] (Homo sapiens, A-375, 72 h).
With `COc1ccc([C@@H]2CC(=O)c3c(O)cc(O)cc3O2)cc1O` [Compound 33, hesperetin], the IC50 at 24 h in [1] and in data set [6] was over 200 µM each time. Also, the IC50 at 48 h in data set [1] and in data set [6] was over 200 µM in each case. Further, the results for the IC50 at 72 h in data set [1] and in [6] were over 200 µM and 100 to 200 µM, respectively. The IC50 in [2] (C32, 24 h) is over 200 µM; in [2] (C32, 48 h), 100 to 200 µM; in data set [2] (C32, 72 h), 76.5 ± 6.3 µM; in [3] (setting [13]) it was 100 to 200 µM; in [3] (setting [14]) it was 100 to 200 µM; in data set [3] (setting [15]), 74.5 ± 6.4 µM. Besides, the IC50 is 69 ± 5.1 µM in [4] (setting [16]); 58.3 ± 5.6 µM in data set [4] (setting [17]); 53.7 ± 4 µM in data set [4] (setting [18]); 100 to 200 µM in [5] (Homo sapiens, A-375, 24 h); 100 to 200 µM in data set [5] (Homo sapiens, A-375, 48 h); 100 to 200 µM in [5] (Homo sapiens, A-375, 72 h).
`N.N.[Cl][Pt][Cl]` [cPt, cisplatin, reference compound]: the IC50 in data set [7] (A375, 24 h) turned out to be 3.8 ± 0.2 µM; in data set [7] (A375, 48 h) it was 3.9 ± 0.5 µM; in [7] (A375, 72 h), 3.4 ± 0.3 µM; in data set [8] (C32, 24 h), 6.8 ± 0.4 µM; in [8] (C32, 48 h), 5.7 ± 0.3 µM; in data set [8] (C32, 72 h) it was 4.4 ± 0.4 µM. Besides, the IC50 in [9] (24 h) was determined as 7.1 ± 0.9 µM; in data set [9] (48 h), 6.1 ± 0.5 µM; in data set [9] (72 h), 6.1 ± 0.8 µM; in [4] (read-out: IC50, cytotoxic activity, NRU assay, C32, 72 h), 13.8 ± 1.5 µM; in data set [5] (A375, 72 h), 9.9 ± 1.1 µM; in data set [12], 47.5 ± 4.9 µM. For the same molecule, the “cleavage of initiator caspases, caspase-9 and caspase-8” value in [10] was “cleavage of both initiator caspases”. In data set [10], the “levels of the caspases-3 and -7 zymogens” value is recorded as “decreased levels”. The “phosphorylation of the RSK protein” value in data set [10] was “impaired”. In data set [11], the “cleaved PARP and caspase-9” value was “generated cleaved PARP and caspase-9”. Besides, in data set [11], the “phosphorylation of RSK” value is on record as “inhibited”.
On to `O=c1cc(-c2ccccc2)oc2cc(O)cc(O)c12` [Compound 14, chrysin], for which the IC50 at 24 h was over 200 µM in [1] and 100 to 200 µM in data set [6]. In addition, the IC50 at 48 h was over 200 µM in [1] and 65.7 ± 4.2 µM in [6]. Besides, the IC50 at 72 h stood at 71.2 ± 4.5 µM in [1] and 76.3 ± 4.7 µM in data set [6]. Besides, the IC50 in [2] (C32, 24 h) is 100 to 200 µM; in [2] (C32, 48 h), 96.4 ± 7 µM; in data set [2] (C32, 72 h), 58.9 ± 4.5 µM; in data set [3] (setting [13]) it was 100 to 200 µM; in data set [3] (setting [14]), 66.4 ± 4.5 µM; in [3] (setting [15]) it was 34.4 ± 2.8 µM. In addition, the IC50 was determined as 89.2 ± 7.8 µM in [4] (setting [16]); 44.7 ± 3.9 µM in [4] (setting [17]); 25.6 ± 2.4 µM in data set [4] (setting [18]); 52.4 ± 3.5 µM in [5] (Homo sapiens, A-375, 24 h); 34.5 ± 2.3 µM in [5] (Homo sapiens, A-375, 48 h); 33.1 ± 2.8 µM in data set [5] (Homo sapiens, A-375, 72 h).

(Values after publication PMC10854695, “Using Flavonoid Substitution Status to Predict Anticancer Effects in Human Melanoma Cancers: An In Vitro Study” (Cancers, 2024).)
